Experimental data as given in US20260306476A1, “ANTIBACTERIAL COMPOUND PBT2” (priority 2022, published 2026).
Converted amounts (≈) assume the structure as drawn.

Key:
[1] = cited from earlier work
[2] = test system: non-typeable Haemophilus influenzae (NTHi); assay: Sensitivity across NTHi strains; type: cell-based; settings: all strains tested
Procedure: The MIC of PBT2 against five non-typeable Haemophilus influenzae (NTHi) strains was determined (CLSI. 2022. Performance Standards for Antimicrobial Susceptibility Testing, 32nd Edition. Clinical and Laboratory Standards Institute).

[3] = test system: primary human cervical epithelial (Pex) cells; assay: PBT2-induced Pex cell cytotoxicity; type: cell-based; settings: PBT2 0.016 to 4.695 mg/L; 24 h
Procedure: (§1) To assess the ability of PBT2 to cure an established gonococcal infection in a human ex vivo system, primary human cervical epithelial (Pex) cells were challenged with Neisseria gonorrhoeae strain WHO Z for 90 min and then treated with 0.1% DMSO (vehicle control), PBT2 (0.016 mg/L to 4.695 mg/L), or ceftriaxone (0.5 mg/L, positive control) for 24 h. Viable gonococci were then enumerated. […] PBT2-induced Pex cell cytotoxicity was not observed during the assay.

[4] = test system: Helicobacter pylori CH426; assay: MIC of PBT2 alone (agar); type: cell-based
[5] = test system: Neisseria meningitidis PMC10 (Y); assay: MIC of PBT2 (broth and agar)
[6] = test system: vancomycin-resistant Enterococcus (VRE); settings: in the absence of an antibiotic; cited from earlier work
[7] = test system: Neisseria gonorrhoeae strain WHO Z; assay: Ex vivo Neisseria gonorrhoeae infection of human cervical (Pex) cells; type: cell-based
Excerpt: FIG. 4: Chart indicating PBT2 can cure Neisseria gonorrhoeae infection of human cervical (Pex) cells. […] Ceftriaxone (CRO, positive control) is currently recommended for gonorrhoea treatment. Veh—0.1% DMSO vehicle control; UT—untreated; * p<0.0001 versus vehicle for CRO or PBT2 treatment.
as §1

[8] = test system: Helicobacter pylori ATCC 43504; assay: MIC of PBT2 alone (agar); type: cell-based; settings: ATCC43504
[9] = test system: Neisseria meningitidis MC58 (B); assay: MIC of PBT2 (broth and agar)
[10] = test system: Campylobacter jejuni NCTC 11168; assay: MIC of PBT2 alone (broth); type: cell-based; settings: NCTC11168
Procedure: (§2) The MIC of PBT2 against three Campylobacter jejuni strains was determined. All strains tested were sensitive to PBT2.

[11] = test system: Campylobacter jejuni ATCC 33560; assay: MIC of PBT2 alone (broth); type: cell-based; settings: ATCC33560
Procedure: as §2

[12] = test system: Campylobacter jejuni 81-176; assay: MIC of PBT2 alone (broth); type: cell-based; settings: 81176
Procedure: as §2

Neisseria meningitidis = assay: MIC / susceptibility across Neisseria meningitidis strains; settings: all strains tested; for MIC: Neisseria meningitidis
Neisseria gonorrhoeae = assay: MIC / susceptibility across Neisseria gonorrhoeae strains; type: cell-based; settings: for MIC: Neisseria gonorrhoeae
Excerpt: 13 multidrug resistant WHO strains of Neisseria gonorrhoeae were selected to cover antimicrobial resistance phenotypes to all the antibiotics currently used. MS11 is a laboratory strain and ATCC49226 is a CLSI standard MIC control strain (CLSI. 2022. Performance Standards for Antimicrobial Susceptibility Testing, 32nd Edition. Clinical and Laboratory Standards Institute which is hereby incorporated by reference in its entirety). The MICs (minimum inhibitory concentration) of PBT2 alone in the absence of zinc or a further antimicrobial agent against these Neisseria gonorrhoea strains are summarised in Table 1.

[13] = test system: Helicobacter pylori 26695; assay: MIC of PBT2 alone (agar); type: cell-based
Procedure: The MIC of PBT2 against four Helicobacter pylori 26695 strains was determined. The strains tested were sensitive to PBT2.

[14] = test system: Neisseria gonorrhoeae strain WHO Z; assay: MIC of Triton X-100 with/without PBT2; type: cell-based; settings: 0.156 mg/L (sub-MIC) PBT2
Excerpt: Without wishing to be bound by theory, the inventors hypothesise that this may due to the fact PBT2 is a derivative of the iron chelator clioquinol and PBT2 has the capacity to chelate a range of heavy metals including iron. Genes encoding metal homeostasis proteins (blue dots) are presented in the volcano plot (FIG. 3). Metal homeostasis was previously identified as a crucial feature of gonococcal biology, and therefore it is postulated this may be an “Achilles' heel” with respect to Neisseria gonorrhoeae ionophore sensitivity. […] MpeR is an iron-repressed, AraC-like protein that regulates the mtr efflux locus (involved in antimicrobial susceptibility) in Neisseria gonorrhoeae. Up-regulation of mpeR (e. g. by PBT2) down-regulates MtrF and, in turn, would increase Neisseria gonorrhoeae sensitivity to the antimicrobial detergent, Triton X-100 (22). […] Thus, without wishing to be bound to theory, the inventors hypothesise that PBT2 may influence bacterial iron homeostasis and trigger general defence mechanisms, such as Mtr-mediated antimicrobial efflux, but the Mtr-system may be unable to protect against PBT2.

[15] = test system: gram-positive and gram-negative bacteria; settings: PBT2 in the presence of zinc; cited from earlier work
[16] = human; 250 mg/day for up to 72 hours; NCT02249728; cited from earlier work
[17] = test system: Neisseria gonorrhoeae WHO Z; assay: Time-kill assay; type: cell-based; settings: PBT2 alone at 0.313 mg/L (MIC)
Excerpt: FIG. 1: Time-kill curves of Neisseria gonorrhoeae WHO Z in GC broth with or without PBT2. Error bars indicate standard deviation from 3 biological replicates.

[18] = test system: erythromycin-resistant group A Streptococcus (GAS); settings: in the absence of an antibiotic; cited from earlier work
[19] = test system: Neisseria meningitidis Z2491 (A); assay: MIC of PBT2 (broth and agar)

For `CN(C)Cc1ccc2c(Cl)cc(Cl)c(O)c2n1` [PBT2, 5,7-dichloro-2-[(dimethylamino)methyl]quinolin-8-ol], the safety and tolerability ([1]; 250 mg daily for up to 12 months, without serious side effects or withdrawal symptoms) is listed as “safe and well-tolerated, without serious side effects or withdrawal symptoms”, the safety ([1]; data from phase II clinical trials) is listed as “safe-for-human-use” and the sensitivity [2] is listed as “sensitive”. The “PBT2-induced Pex cell cytotoxicity” value [3] was “not observed”, the MIC [4] was 1.25 µg/mL and the MIC ([5]; agar) was 0.156 µg/mL. The MIC ([5]; broth) was 0.625 µg/mL, the antibacterial activity [6] was “neither PBT2 nor zinc alone displayed antibacterial activity which would be suitable to treat an infection” and the “reduction in Neisseria gonorrhoeae survival” value ([7]; 24 h post-treatment, PBT2 0.016 to 4.695 mg/L, FIG. 4) was “dose-dependent reduction”. The “effectiveness versus ceftriaxone (0.5 mg/L)” value ([7]; >0.157 mg/L PBT2, 24 h) was “comparable effectiveness to that observed for the control antibiotic, ceftriaxone”, the p versus vehicle ([7]; survival at 24 h, FIG. 4, CRO 0.5 mg/L) was < 0.0001 and the MIC [8] was 2.5 µg/mL. The MIC ([9]; agar) was 0.039 µg/mL, the MIC ([9]; broth) was 0.156 µg/mL and the MIC [10] was 0.313 µg/mL. For the same compound, the MIC [11] was 0.156 µg/mL, the MIC [12] was 0.156 µg/mL and the MIC (Neisseria meningitidis; agar) was 0.039 to 0.156 µg/mL (≈ 0.144 to 0.575 µM). For the same compound, the MIC (Neisseria meningitidis; broth) was 0.156 to 0.625 µg/mL (≈ 0.575 to 2.31 µM), the sensitivity (Neisseria meningitidis) was “sensitive” and the MIC (Neisseria gonorrhoeae; MDR Neisseria gonorrhoeae) was 0.313 µg/mL (≈ 1.15 µM). The MIC (Neisseria gonorrhoeae; all strains tested, agar, PBT2 alone) was 0.312 to 0.625 µg/mL (≈ 1.15 to 2.31 µM), the MIC (Neisseria gonorrhoeae; all strains tested, broth, PBT2 alone) was 0.156 to 0.312 µg/mL (≈ 0.575 to 1.15 µM) and the susceptibility (Neisseria gonorrhoeae; all strains tested, PBT2 alone) was “highly susceptible”. For the same compound, the MIC [13] was 1.25 µg/mL, the “effect on sensitivity to Triton X-100” value [14] was “increased the sensitivity” and the “susceptibility of bacteria to antibiotics” value [15] was “more susceptible to antibiotics”. For the same compound, the “plasma drug level (AUC)” value [16] was 1,660 ng*h/ml, the “time in which antibacterial activity occurred” value [17] was ≤ 3 h and the antibacterial activity [18] was “neither PBT2 nor zinc alone displayed antibacterial activity which would be suitable to treat an infection”. The MIC ([19]; agar) was 0.039 µg/mL and the MIC ([19]; broth) was 0.156 µg/mL.
